Assays:
[1] = Stability of the active solution (limpid, no recrystallisation); type: physicochemical; details: ESTASOL/ARLASOLVE DMI plus refined coconut oil; after stirring (30 min Example 1, 20 min Example 3)
Protocol: In a 1 liter beaker, the following products are successively introduce with stirring:
And then introduce by sprinkling while still stirring:
After completely dissolving, pour while still stirring:
300 g refined coconut oil.
In a 1 liter beaker, the following are successively added under stirring:
100 g refined coconut oil.
All is stirred for 20 minutes until the active solution becomes limpid.

[2] = Solubilisation of naturally crystalline substances in the solvent mixture (dibasic esters / dimethyl isosorbide); type: physicochemical; details: solvent mixture solvent/cosolvent

Q: With `Cn1c(=O)c2c(ncn2C)n(C)c1=O` [Caffeine] as the compound, how does the “state of the active solution after preparation” value [1] read?
A: Its value is “does not recrystallise”.

Q: Which “maximum concentration possible without recrystallization in the active solution” value ([2]; cold solution, even at low temperature) does the source give for `CC1(C)[C@H](C(=O)O[C@H](C#N)c2cccc(Oc3ccccc3)c2)[C@@H]1C=C(Br)Br` [Deltamethrin] here?
A: The value was no more than 20 % by weight.

Q: For `CNC(=O)Oc1ccccc1OC(C)C` [Propoxur], which “concentration dissolved in a stable manner in the solvent mixture” value [2] is on record?
A: The value was 56 % by weight of solution.
